According to patent US7078585B1, “Bacterial cell component-unresponsive model mouse” (Japan Science and Technology Agency, priority 1999, dated 2006):
Entries after “also recorded” stand apart in the source; their conditions may differ. Where two headings read alike, the source gives them in different places. Values belong to the molecule of their own block, whether it stands above or below them.

How the values were obtained:
[1] = tested on: JNK; assay: JNK activation (in vitro kinase assay); assay type: cell-based, mouse
Experimental: In addition to induction of NF-κB activation, IL-1 is also known to activate c-Jun N-terminal kinase (JNK). To test whether IL-18 induces JNK activation, an in vitro kinase assay was carried out using GST-c-Jun-fusion protein as a […]. […] IL-18-induced NF-κB and JNK activation was impaired in MyD88-deficient mice.
(§1) In order to examine whether a lipoprotein/lipopeptide activates intracellular signaling molecules with the results of example 16, peritoneal macrophages of the 4 kinds of mouse (1×10^6) were stimulated with 0.3 ng/ml of R-MALP-2 for 10 minutes, and in vitro kinase assay (Auto in FIG. 25A), Western blot analysis (WB in FIG. 25A), electrophoretic mobility shift assay (FIG. 25B) were conducted with anti-IRAK antibody as in example 12. In addition, in vitro kinase assay (Auto in FIG. 25C) and Western blot analysis (WB in FIG. 25C) with anti-JNK1 antibody were also conducted.

[2] = tested on: NF-κB; assay: NF-κB DNA binding activity (electrophoretic / gel mobility shift assay); assay type: cell-based, mouse
Experimental: Splenic T cells cultured in the presence of IL-12 and anti-CD3 antibody for 4 days were starved for 3 hours and then stimulated with IL-18. Nuclei extracted from the stimulated cells were analyzed by a gel mobility shift assay using a specific probe containing NF-κB binding site.
NF-κB activation in response to LPS or PGN was also investigated. Macrophages of various kinds of mouse were stimulated with said LPS or PGN, then nuclear extracts from the macrophages were purified and incubated with a probe specific to DNA binding site of NF-κB, and visualized by electrophoretic mobility shift assay as described previously (Immunity 9, 143–150, 1998). The results are shown in FIGS. 21C and D. Arrows in FIGS. 21C and D indicate the position of a complex comprised of NF-κB and the specific probe, and arrowheads indicate the position of specific probe only.
as §1

[3] = tested on: YAC-1 targeting cells; assay: NK lytic activity against 51Cr-labelled YAC-1 target cells; assay type: cell-based, mouse; details: 24 hours
Experimental: It has been well known that IL-18 enhances lytic activity of NK cells. Splenic […] from MyD88 knockout mice of the present invention and wild-type littermates were cultured in the presence or absence of 20 ng/ml of IL-18 (Hayashibara Biochemical Laboratories, Inc.) for 24 hours with ^51Cr-labelled mouse lymphoma cells (hereinafter “YAC-1”) targeting cells. 4 hours later, released ^51Cr in supernatants were counted by a gamma counter.

[4] = tested on: splenic T cells; assay: IFN-γ production by splenic cells / splenic T cells (ELISA); assay type: cell-based, mouse; details: 20 ng/ml, 24 hours
Experimental: Further, splenic B cells of MyD88 knockout mice of the present invention and their wild-type littermates were stimulated by 20 ng/ml of IL-18 and cultured for 24 hours in vitro, then production of IFN-γ in culture supernatants was measured by ELISA.
Splenic T cells of MyD88 knockout mice of the present invention and their wild-type littermates, which were purified to 95% or over, were cultured on anti-CD3 antibody (20 μg/ml)(PharMingen)-coated plates in the presence of 2 ng/ml IL-12. 4 days after the onset of culture, cells were harvested and washed with Hanks' balanced salt solution. The washed cells (2×10^5) were stimulated and cultured again on anti-CD3 antibody (20 μg/ml)-coated 96-well plates for 24 hours with 20 ng/ml of IL-18 or 2 ng/ml of IL-12. Concentration of IFNγ in culture supernatants was determined by ELISA and compared.
MyD88 knockout mice of the present invention and their wild-type littermates were intraperitoneally injected with 500 μg of heat-killed Propionibacterium acnes (P. acnes). […] Concentration of IFN-γ in culture supernatants was determined by ELISA. […] 14 days after injection, T cells were purified from spleen, then cultured and stimulated for 24 hours, as described above, subsequently concentration of IFN-γ was measured.

[5] = tested on: AP-1; assay: AP-1-dependent reporter activity after IL-18 treatment; assay type: cell-based; details: stimulation with IL-18
Experimental: Next, it was examined whether the dominant negative MyD88 mutant blocked IL-18-induced NF-κB activation as well. COS-7 cells were transiently transfected with MyD88 (amino acid 152–296) expression vector together with NF-κB-dependent luciferase reporter gene, and luciferase activity after IL-18 treatment was measured. Coexpression of MyD88 blocked IL-18-induced activation almost completely (see FIG. 7).
Because IL-18 activates AP-1-dependent gene information, whether MyD88 (amino acid 152–296) also acted as a dominant negative mutant of IL-18-induced AP-1 activation was investigated. Stimulation with IL-18-induced an approximately 3- to 4-fold increase in AP-1 activity, and this activation was blocked by coexpression of MyD88 (amino acid 152–296) (see FIG. 7).

[6] = tested on: mice; assay: IL-1-induced acute phase protein mRNA in liver and serum TNF-α/IL-6 after intravenous injection; assay type: in vivo, mouse; details: 1 μg intravenously, 2 hours
Experimental: MyD88 knockout mice of the present invention were intravenously injected with 1 μg of […] (Genzyme), and 2 hours later liver and sera were taken. Total RNA was extracted from the liver using Trizol reagent (GIBCO). This RNA (10 μg) was electrophoresed and transferred to a nylon membrane, then Northern blot analysis was conducted with ^32P-labelled cDNA for acute phase proteins such as serum amyloid A (SAA-I), serum amyloid P(SAP), and haptoglobin (HP).
Because IL-1 induces production of […], increase of TNF-α and IL-6 concentrations in serum taken from MyD88 knockout mice of the present invention and wild-type littermates by the above-stated method were measured by ELISA.

[7] = tested on: thymocytes; assay: Thymocyte (T cell) proliferation with IL-1 costimulation ([3H]thymidine); assay type: cell-based, mouse; details: 100 U/ml with PHA, ConA or IL-2, 72 hours
Description: Proliferation of T cells were examined by measuring [^3H] amount of [^3H] thymidine taken into the cells.

[8] = tested on: peritoneal macrophages; assay: IL-6 (ELISA) and NO2^− (Greiss method) production by peritoneal macrophages; assay type: cell-based, mouse; details: for production of IL-6: 24 hours; for production of NO2^−: in the presence of IFN-γ (30 unit/ml)
Experimental: Each of TLR2 knockout (TLR2−/−), TLR4 knockout (TLR4−/−) and wild-type (wild-type) mice were intraperitoneally injected with 2 ml of 4% thioglycollate medium (DIFCO). Three days later, peritoneal exudate cells were isolated from the peritoneal cavity of each mouse. These cells were cultured in RPMI1640 medium (GIBCO) supplemented with 10% fetal bovine serum (GIBCO) for 2 hours at 37° C. and washed with ice-cold Hank's buffered salt solution (HBSS; GIBCO) to remove nonadherent cells. Adherent cells were used as peritoneal macrophages for following experiments.
Synthetic lipid A, which was soluble in endotoxin-free water and containing 0.025% of triethylamine, was used as said synthetic lipid A. After the culture, production amounts of IL-6 (FIG. 17A), TNF-α (FIG. 17B) and NO2^− (FIG. 17C) in culture supernatants were measured. Production amount of IL-6 was measured by enzyme-linked immunosorbent assay (ELISA; ENDOGEN), and that of TNF-α was measured by ELSIA, according to manufacturer (Genzyme)'s instructions, and that of NO2^31 was measured by the Greiss method using NO2/NO3 Assay Kit (Dojindo Laboratories).

[9] = tested on: peritoneal macrophages; assay: TNF-α production by stimulated peritoneal macrophages (ELISA); assay type: cell-based, mouse
[10] = tested on: peritoneal macrophages; assay: I-A^b expression in peritoneal macrophages after intraperitoneal IFN-γ; assay type: in vivo, mouse; details: 5000 U intraperitoneally, three days after injection
Description: Each of wild-type, MyD88- and TLR4-deficient mice were intraperitoneally injected with 5000 U of IFN-γ (Genzyme) or PBS. Three days after injection, peritoneal macrophages were collected and stained by combining I-A^b molecule on the surface of the macrophage membranes and FITC-conjugated anti-mouse I-A^b antibody, then analyzed by fluorescence-activated cell sorter Calibur using CELLQuest software (see FIG. 9C).

[11] = tested on: splenic B cells; assay: MHC class II (I-A^b) expression on splenic B cells (flow cytometry); assay type: cell-based, mouse; details: 48 hours
Experimental: The expression of major histocompatibility complex (MHC) class II (I-A^b molecule) on the surface of splenic B cells in response to Re-595LPS was examined by flow cytometry. Splenic B cells (1×10^6) from each of the wild-type, MyD88- and TLR4-deficient mice were cultured for 48 hours in the presence of various concentrations (0, 0.01, 0.1, 1, 10 or 100 μg/ml) of LPS. After the culture, the cells were collected and then stained by combining I-A^b molecule on the surface of the cells and FITC-labelled antibody which is constructed by combining phycoerythrin (PE; PharMingen)-conjugated anti-B220 antibody or biotinylated anti-mouse I-A^b antibody (PharMingen) and fluorescein […] (FITC; PharMingen)-conjugated streptavidin. The stained cells were analyzed on fluorescence-activated cell sorter Calibur (FACS Calibur) using CELLQuest software (Becton Dickinson).
Next, Splenic B cells (1×10^6) from each of the wild-type, MyD88- and TLR4-deficient mice were cultured for 48 hours in the presence or absence of 100 U/ml of IL-4, and then stimulated. Subsequently, the cells were stained by combining I-A^b molecule on the surface of the splenic B cells and PE-conjugated anti-B220 antibody or FITC-conjugated anti-mouse I-A^b antibody. The cell proliferation was measured on fluorescence-activated cell sorter Calibur using CELLQuest software (see FIG. 9B).
In addition, the expression of major histocompatibility complex (MHC) class II (I-A^b) on the surface of B cells in response to Re-595 LPS was examined by flow cytometry. Splenic B cells (1×10^5) of each of wild-type, TLR2 knockout (2−/−) and TLR4 knockout (4−/−) mice were isolated and cultured for 48 hours in 96-well plates with various concentrations (0, 10^1, 10^2, 10^3, 10^4 or 10^5 ng/ml) of LPS or 100 U/ml of IL-4. […] The stained cells were analyzed on fluorescence-activated cell sorter Calibur (FACS Calibur) using CELLQuest software (Becton Dickinson) (FIG. 18B).

[12] = nuclear extracts of wild-type cells
[13] = peritoneal macrophages of TLR2 knockout mice
[14] = peritoneal macrophages of wild-type mice

- JNK activation ([1]; MyD88-deficient cells): normal activation of JNK was observed
Molecule: TNF-α
- NF-κB DNA binding activity / NF-κB activation ([2]; nuclear extracts of MyD88-deficient cells): almost the same levels of NF-κB DNA binding activity
- NF-κB DNA binding activity / NF-κB activation [2, 12]: almost the same levels of NF-κB DNA binding activity

- JNK activation ([1]; Th1-developing cells of wild-type mice): induced JNK activation
Molecule: IL-18: IL-18 (Hayashibara Biochemical Laboratories, Inc.), cytokine
- lytic activity to YAC-1 targeting cells ([3]; splenic cells of MyD88 knockout mice): not enhanced
- lytic activity to YAC-1 targeting cells ([3]; splenic cells of wild-type mice): dramatically enhanced
- production of IFN-γ ([4]; splenic cells / T cells of MyD88 knockout mice): production of IFN-γ was not observed; also recorded: cannot enhance IL-18-responsive production of IFNγ; also recorded: could not be enhanced
- production of IFN-γ ([4]; splenic cells / T cells of wild-type mice): production of IFN-γ was induced; also recorded: high level of IFN-γ production in response to IL-18 was observed
- JNK activation ([1]; MyD88-deficient cells): IL-18-induced JNK activation was not observed
- NF-κB DNA binding activity / NF-κB activation [2, 12]: detected in the nuclear extracts from wild-type cells
- increase in AP-1 activity [5]: 3- to 4 fold

Molecule: IL-1β: IL-1β (Genzyme), cytokine
- IL-6 concentration in serum ([6]; MyD88 knockout mice): neither TNF-α nor IL-6 concentration increased
- TNF-α concentration in serum ([6]; MyD88 knockout mice): neither TNF-α nor IL-6 concentration increased
- increase of mRNA expression of acute phase proteins (SAA-I, SAP, HP) in liver ([6]; MyD88 knockout mice): not observed in MyD88 knockout mice
- increase of mRNA expression of acute phase proteins (SAA-I, SAP, HP) in liver ([6]; wild-type littermates): increase of induction was observed in wild-type mice
- IL-6 concentration in serum ([6]; wild-type mice): TNF-α and IL-6 concentrations increased
- TNF-α concentration in serum ([6]; wild-type mice): TNF-α and IL-6 concentrations increased
- proliferation of thymocytes ([7]; MyD88 knockout mice): almost no enhanced proliferation
- proliferation of thymocytes ([7]; wild-type littermates): displayed enhanced proliferation

Molecule: lipid A
- production of IL-6 [8, 13]: produced IL-6 and TNF-α
- production of NO2^− [8, 13]: production of NO2^− was confirmed
- production of IL-6 ([8]; peritoneal macrophages of TLR4 knockout mice): produced neither IL-6 nor TNF-α
- production of IL-6 [8, 14]: produced IL-6 and TNF-α
- production of NO2^− [8, 14]: production of NO2^− was confirmed
- production of TNF-α [9]: produced IL-6 and TNF-α
- production of TNF-α ([9]; peritoneal macrophages of TLR4-deficient mice, 24 hours): produced neither IL-6 nor TNF-α

B1: IFN-γ: IFN-γ (Genzyme), cytokine (protein, UniProt P01579 24-161, looked up)
Interferon gamma: QDPYVKEAENLKKYFNAGHSDVADNGTLFLGILKNWKEESDRKIMQSQIVSFYFKLFKNFKDDQSIQKSVETIKEDMNVKFFNSNKKKRDDFEKLTNYSVTDLNVQRKAIHELIQVMAELSPAAKTGKRKRSQMLFRG
- expression of I-A^b molecule in peritoneal macrophages [10]: comparative among wild-type, MyD88- and TLR4-deficient mice

B2: IL-4: IL-4 (Genzyme), cytokine (protein, UniProt P05112 25-153, looked up)
Interleukin-4: HKCDITLQEIIKTLNSLTEQKTLCTELTVTDIFAASKNTTEKETFCRAATVLRQFYSHHEKDTRCLGATAQQFHRHKQLIRFLKRLDRNLWGLAGLNSCPVKEANQSTLENFLERLKTIMREKYSKCSS
- expression of I-A^b molecule ([11]; splenic B cells of MyD88-deficient mice): showed same reaction as those of wild-type mice
- expression of I-A^b molecule ([11]; splenic B cells of TLR2 knockout mice): normal expression of I-A^b molecule
- expression of I-A^b molecule ([11]; splenic B cells of TLR4-deficient mice): showed same reaction as those of wild-type mice; also recorded: normal expression of I-A^b molecule
